From ChEMBL document CHEMBL5346962, “Discovery of Sulanemadlin (ALRN-6924), the First Cell-Permeating, Stabilized α-Helical Peptide in Clinical Development” (J Med Chem, 2023)
pEC50: −log10 of the molar value. Activity calls are given as the source filed them. No cut-off for these calls is given here.

What was measured:
SJSA-1 [1] = assay: Cytotoxicity against human SJSA-1 cells incubated for 72 hrs in presence of 10% FBS by MTT assay; settings: SJSA-1, 72 h
[2] = Induction of cell cycle arrest in human CD34+ cells assessed as accumulation at S phase at 0.1 uM incubated for 24 hrs by flow cytometry (reference value: 27.5 +/- 5.8%); format: toxicity, cell-based; settings: cd34-positive (myeloid/lymphoid) cell
[3] = Induction of cell cycle arrest in human CD34+ cells assessed as accumulation at S phase at 1 uM incubated for 24 hrs by flow cytometry (reference value: 27.5 +/- 5.8%); format: toxicity, cell-based; settings: cd34-positive (myeloid/lymphoid) cell
[4] = Induction of cell cycle arrest in human CD34+ cells assessed as accumulation at S phase at 2.5 uM incubated for 24 hrs by flow cytometry (reference value: 27.5 +/- 5.8%); format: toxicity, cell-based; settings: cd34-positive (myeloid/lymphoid) cell
[5] = Induction of cell cycle arrest in human CD34+ cells assessed as accumulation at S phase at 10 uM incubated for 24 hrs by flow cytometry (reference value: 27.5 +/- 5.8%); format: toxicity, cell-based; settings: cd34-positive (myeloid/lymphoid) cell
[6] = Induction of cell cycle arrest in human CD34+ cells at 1 uM incubated for 24 hrs followed by compound wash-out and addition of fresh-medium containing compounds measured after 24 hrs by flow cytometry; format: toxicity, cell-based; settings: cd34-positive (myeloid/lymphoid) cell, 48 h
Fibroblast [7] = assay: Protection against chemotherapy-induced apoptosis in human fibroblast assessed as decrease in caspase-3/7 level preincubated for 16 hrs followed by carboplatin addition measured after 32 hrs; format: functional, cell-based; settings: dose 4.6-10 µM, time 48.0 hrs
Fibroblast [8] = assay: Protection against chemotherapy-induced apoptosis in human fibroblast assessed as decrease in caspase-3/7 level preincubated for 16 hrs followed by docetaxel trihydrate addition measured after 32 hrs; format: functional, cell-based; settings: dose 4.6-10 µM, time 48.0 hrs
BT-474 [9] = assay: […] chemotherapy-induced apoptosis in human BT-474 cells assessed as decrease in caspase-3/7 level at 4.6 to 10 uM preincubated for 16 hrs followed by doxorubicin addition measured after 32 hrs; format: functional, cell-based; settings: dose 4.6-10 µM, time 48.0 hrs
BT-474 [10] = assay: […] chemotherapy-induced apoptosis in human BT-474 cells assessed as decrease in caspase-3/7 level at 4.6 to 10 uM preincubated for 16 hrs followed by paclitaxel addition measured after 32 hrs; format: functional, cell-based; settings: dose 4.6-10 µM, time 48.0 hrs
BT-474 [11] = assay: […] chemotherapy-induced apoptosis in human BT-474 cells assessed as decrease in caspase-3/7 level at 4.6 to 10 uM preincubated for 16 hrs followed by docetaxel addition measured after 32 hrs; format: functional, cell-based; settings: dose 4.6-10 µM, time 48.0 hrs
SJSA-1 [12] = assay: Antitumor activity against human SJSA-1 cells xenografted in athymic nu/nu mouse […] assessed as tumor growth inhibition administered intravenously thrice a week measured for 15 days; format: functional, cell-based; settings: dose 13.3 mg/kg, route iv, time 15.0 day
MCF7 [13] = assay: Antitumor activity against human MCF7 cells xenografted in athymic nude BALB/c mouse assessed as upregulation of p53 protein level at 20 mg/kg, iv by immunohistochemical analysis; format: functional, organism-based; settings: time <= 48.0 hrs, TDE = time-dependent effect
MCF7 [14] = assay: Antitumor activity against human MCF7 cells xenografted in athymic nude BALB/c mouse assessed as decrease in BrdU incorporation at 20 mg/kg, iv by immunohistochemical analysis; format: functional, organism-based; settings: time <= 48.0 hrs, TDE = time-dependent effect
Bone marrow cell [15] = assay: Upregulation of Puma mRNA level in bone marrow cells of C57BL/6 mouse at 10 mg/kg, iv measured for 24 hrs by qRT-PCR analysis; format: functional, organism-based
Bone marrow cell [16] = assay: Upregulation of Noxa mRNA level in bone marrow cells of C57BL/6 mouse at 10 mg/kg, iv measured for 24 hrs by qRT-PCR analysis; format: functional, organism-based
Mus musculus [17] = assay: Upregulation of p21 expression level in gastrointestinal tract of C57BL/6 mouse at 2.4 mg/kg, iv administered every 8 hrs measured for 16 hrs by immunohistochemical analysis; format: functional, organism-based
Mus musculus [18] = assay: Protection against topotecan-induced neutropenia in C57BL/6 mouse assessed as increase in neutrophil level at 2.4 mg/kg administered on day 0 to 4 and co-administered 30 mins prior to topotecan on day 1 to 4 followed by topotecan administration on day 5 measured on day 7 by CBC analysis relative to control; format: functional; settings: time 7 day
Mus musculus [19] = assay: Protection against topotecan-induced epithelium hypertrophy in gastrointestinal tract of C57BL/6 mouse at 2.4 mg/kg administered on day 0 to 4 and co-administered 30 mins prior to topotecan on day 1 to 4 followed by topotecan administration on day 5 measured on day 9 by H&E staining based analysis; format: functional, organism-based; settings: time 9.0 day
Mus musculus [20] = assay: Protection against topotecan-induced epithelium hyperplasia in gastrointestinal tract of C57BL/6 mouse at 2.4 mg/kg administered on day 0 to 4 and co-administered 30 mins prior to topotecan on day 1 to 4 followed by topotecan administration on day 5 measured on day 9 by H&E staining based analysis; format: functional, organism-based; settings: time 9.0 day
NCI-H69 = assay: Antitumor activity against human NCI-H69 cells xenografted in athymic nu/nu mouse assessed as reduction in tumor volume at 8 mg/kg administered on day 0 to 4 and co-administered 30 mins prior to topotecan on day 1 to 4 followed by topotecan administration on day 5 measured for 60 days; format: functional, organism-based; settings: time 60.0 day
[21] = Cmax in mouse at 5 mg/kg by LC-MS/MS analysis; format: ADME, organism-based; parameters: dose 5 mg/kg; settings: in vivo
[22] = AUC (all) in rat at 2.5 mg/kg by LC-MS/MS analysis; format: ADME, organism-based; parameters: dose 2.5 mg/kg; settings: in vivo
[23] = Half life in rat at 5 mg/kg by LC-MS/MS analysis; format: ADME, organism-based; settings: in vivo
[24] = Clearance in rat at 5 mg/kg by LC-MS/MS analysis; format: ADME, organism-based; settings: in vivo
[25] = AUC (all) in rat at 10 mg/kg by LC-MS/MS analysis; format: ADME, organism-based; parameters: dose 10 mg/kg; settings: in vivo
[26] = Clearance in rat at 10 mg/kg by LC-MS/MS analysis; format: ADME, organism-based; settings: in vivo
[27] = Cmax in cynomolgous monkey at 10 mg/kg by LC-MS/MS analysis; format: ADME, organism-based, Macaca fascicularis; parameters: dose 10 mg/kg; settings: cynomolgus monkey, in vivo
[28] = AUC (all) in cynomolgous monkey at 10 mg/kg by LC-MS/MS analysis; format: ADME, organism-based, Macaca fascicularis; parameters: dose 10 mg/kg; settings: cynomolgus monkey, in vivo
[29] = Plasma protein binding in mouse at 2 to 50 uM; format: ADME, cell-free; settings: dose 2-50 µM, read-out: PPB (converted)
[30] = Plasma protein binding in dog at 2 to 50 uM; format: ADME, cell-free, Canis lupus familiaris; settings: dose 2-50 µM, read-out: PPB (converted)
[31] = Plasma protein binding in monkey at 250 uM; format: ADME, cell-free, Macaca mulatta; settings: rhesus monkey, read-out: PPB (converted)
[32] = Plasma protein binding in human assessed as unbound fraction at >200 uM; format: ADME, cell-free
[33] = AUC (0 to 24 hrs) in plasma of athymic nu/nu mouse xenografted with human SJSA-1 cells at 25 mg/kg, iv measured for 24 hrs by LC-MS-MS analysis; format: ADME, organism-based; parameters: time 24 hrs, dose 25 mg/kg, route iv; settings: in vivo
[34] = Drug uptake in plasma of athymic nu/nu mouse xenografted with human SJSA-1 cells assessed as AUC (0 to 24 hrs) of metabolite ALRN-8714 at 25 mg/kg, iv measured for 24 hrs by LC-MS-MS analysis; format: ADME, organism-based; parameters: time 24 hrs, dose 25 mg/kg, route iv; settings: in vivo
[35] = Drug uptake in plasma of athymic nu/nu mouse xenografted with human SJSA-1 cells assessed as half life of metabolite ALRN-8714 at 25 mg/kg, iv measured for 24 hrs by LC-MS-MS analysis; format: ADME, organism-based; settings: in vivo
[36] = Toxicity in monkey assessed as NOAEL administered twice weekly for 4 weeks; parameters: species or system Macaca mulatta; settings: rhesus monkey, in vivo

## CC(=O)N[C@@H](CC(C)C)C(=O)N[C@H](C(=O)N[C@@H](Cc1ccccc1)C(=O)N[C@]1(C)CCCCCC/C=C/CCC[C@@](C)(C(=O)N[C@@H](C)C(=O)N[C@@H](C)C(=O)N[C@@H](C)C(=O)N[C@@H](C)C(=O)N[C@@H](C)C(=O)N[C@H](C)C(N)=O)NC(=O)[C@H](CC(C)C)NC(=O)[C@H](CCC(N)=O)NC(=O)[C@H](C)NC(=O)[C@H](Cc2c[nH]c3ccccc23)NC(=O)[C@H](Cc2ccc(O)cc2)NC(=O)[C@H](CCC(=O)O)NC1=O)[C@@H](C)O
SJSA-1 [1]
  pEC50: 6.52
[2]
  Activity: 21.35%
[3]
  Activity: 4.23%
[4]
  Activity: 0.5%
[5]
  Activity: 0.22%
[6]
  Activity: Non-Toxic
Fibroblast [7]
  Activity: Dose-Dependent Effect
Fibroblast [8]
  Activity: Dose-Dependent Effect
BT-474 [9]
  Activity: inactive
BT-474 [10]
  Activity: inactive
BT-474 [11]
  Activity: inactive
SJSA-1 [12]
  Activity: Dose-Dependent Effect
MCF7 [13]
  Activity: Tde
MCF7 [14]
  Activity: Tde
Bone marrow cell [15]
  Activity: Active
Bone marrow cell [16]
  Activity: Active
Mus musculus [17]
  Activity: Active
Mus musculus [18]
  Activity: 84%
Mus musculus [19]
  Activity: Active
Mus musculus [20]
  Activity: Active
NCI-H69
  Activity: Active
[21]
  Cmax: 67.8 µg/mL
[22]
  AUC: 90.5 µg·h/mL
[23]
  half-life: 2 h
[24]
  clearance: 0.4 mL/min/kg
[25]
  AUC: 562 µg·h/mL
[26]
  clearance: 0.317 mL/min/kg
[27]
  Cmax: 236 µg/mL
[28]
  AUC: 1350 µg·h/mL
[29]
  fraction unbound at up to 50 µM: 0.08
[30]
  fraction unbound at up to 50 µM: 0.08
[31]
  fraction unbound at 250 µM: 0.12
[32]
  fraction unbound: 0.12
[33]
  AUC: 3180 µg·h/mL
[34]
  AUC: 85 µg·h/g
[35]
  t1/2: 8.4 h
[36]
  NOAEL at 672 h: 5 mg/kg
